According to patent US20090111847A1, “PREPARATION METHOD AND USE OF COMPOUNDS HAVING HIGH INSECTICIDAL ACTIVITIES” (priority 2006, published 2009):

Columns and labels:
[1] = tested on: Aphis craccivora; test: Insecticidal activity against Aphis craccivora by immersing (mortality after 24 hours); assay type: in vivo; details: for Aphis craccivora LC50 (ppm) / Aphis craccivora Mortality (%) (100 ppm) / Mortality (%) (500 ppm) Aphis craccivora: in vivo; for mortality at 500 ppm: Aphis craccivora, 24 h, read-out: Mortality (%) (500 ppm) Aphis craccivora
Description: Aphis, which belongs to Homoptera and has a piercing-sucking mouthpart, is a common insect for agricultural plant. Aphis craccivora was tested by the way of immersing.
Test method: exactly weighed various samples were independently added to N,N-dimethylformamide to form a 10 g/L stock solution. The mixture was diluted with 0.2 mL/L aqueous Triton X-100 solution to a concentration of 500 ug/mL. After stably sucking on bean sprout, the adult aphis without wings together with bean sprout was dipped into the dilution of 500 ug/mL, 100 ug/mL, 50 ug/mL, 25 ug/mL, 12.5 ug/mL, 6.25 ug/mL (LD50 was calculated), taken out after 5 seconds, and the excess dilution was sucked out with bibulous paper and the adult aphis without wings was incubated in clean vessel at a constant temperature of 23° C. Each concentration was repeated for 3 times and the control group contained 0.2 mL/L aqueous Triton X-100 solution. The number of killed aphis was counted after 24 hours to calculate the mortality.

[2] = tested on: Nilaparvata lugens; test: Insecticidal activity against Nilaparvata lugens by spraying (mortality after 24 hours); assay type: in vivo; details: for mortality at 500 ppm: Nilaparvata lugens, 24 h, read-out: Mortality (%) (500 ppm) Nilaparvata lugens; for Mortality (%) (500 ppm) Nilaparvata lugens: spraying 2 ml, counted after 24 hours
Description: Plant hopper, which belongs to Homoptera and has a piercing-sucking mouthpart, is a common insect for agricultural plant. Nilaparvata lugens was tested by the way of spraying.
Test method: the compound to be tested was exactly formulated into a solution having a certain concentration and clean water was used as a blank control. Each process was repeated for 3 tumblers (3 times). 2 ml of solution was sprayed uniformly to each tumbler by a mini manual sprayer. 10 Nilaparvata lugens were introduced to every sink 6 hours before spraying. Three series of experiments were conducted. The number of killed Nilaparvata lugens was counted after 24 hours to calculate the mortality.

SMILES	Aphis craccivora LC50 (ppm) [1]	Aphis craccivora Mortality (%) (100 ppm) [1]	Mortality (%) (500 ppm) Aphis craccivora [1]	Mortality (%) (500 ppm) Nilaparvata lugens [2]	also measured
CCC1CC([N+](=O)[O-])=C2N(Cc3ccc(Cl)nc3)CCN2C1OC (centres unmarked) [k]	83.0 ppm	92%	–	–	–
CC1CC([N+](=O)[O-])=C2N(Cc3ccc(Cl)nc3)CCN2C1O (centres unmarked) [g]	36.3 ppm	92%	–	–	–
COC1CC(O)N2CCN(Cc3ccc(Cl)nc3)C2=C1[N+](=O)[O-] (centres unmarked) [Compound 42, 1-((6-chloropyridin-3-yl)methyl)-7-methoxy-8-nitro-1,2,3,5,6,7-hexahydroimidazo[1,2-a]pyridin-5-ol]	–	–	–	–	mortality at 500 ppm [1]: 100%; mortality at 500 ppm [2]: 97%
COC1CC(O)N2CCN(Cc3ccc(Cl)nc3)C2=C1[N+](=O)[O-] (centres unmarked) [n]	40.5 ppm	96%	–	–	–
COC1CC([N+](=O)[O-])=C2N(Cc3ccc(Cl)nc3)CCN2C1O (centres unmarked) [p]	47.6 ppm	93%	–	–	–
CCOC1CC(C)C([N+](=O)[O-])=C2N(Cc3ccc(Cl)nc3)CCN21 (centres unmarked) [Compound 3, 1-((6-chloropyridin-3-yl)methyl)-5-ethoxy-7-methyl-8-nitro-1,2,3,5,6,7-hexahydroimidazo[1,2-a]pyridine]	–	–	–	–	mortality at 500 ppm [1]: 100%; mortality at 500 ppm [2]: 100%
CCOC1CC(C)C([N+](=O)[O-])=C2N(CC3CCOC3)CCN21 (centres unmarked) [Compound 17]	–	–	89%	100%	–
CC(=O)OC1CC(C)C([N+](=O)[O-])=C2N(Cc3ccc(Cl)nc3)CCN21 (centres unmarked) [Compound 11, 1-((6-chloropyridin-3-yl)methyl)-7-methyl-8-nitro-1,2,3,5,6,7-hexahydroimidazo[1,2-a]pyridin-5-yl acetate]	–	–	–	–	mortality at 500 ppm [1]: 93%; mortality at 500 ppm [2]: 100%
CCCOC1CC(C)C([N+](=O)[O-])=C2N(Cc3cnc(Cl)s3)CCN21 (centres unmarked) [Compound 14]	–	–	100%	100%	–
CCC1CC(OC(C)C)N2CCN(Cc3ccc(Cl)nc3)C2=C1[N+](=O)[O-] (centres unmarked) [Compound 23]	–	–	65%	95%	–
CC1CC([N+](=O)[O-])=C2N(Cc3cnc(Cl)s3)CCN2C1O (centres unmarked) [Compound 21]	–	–	90%	100%	–
CC1CC(O)N2CCN(CC3CCOC3)C2=C1[N+](=O)[O-] (centres unmarked) [Compound 15]	–	–	24%	35%	–
CCC1CC([N+](=O)[O-])=C2N(Cc3ccc(Cl)nc3)CCN2C1O (centres unmarked) [Compound 26]	–	–	100%	100%	–
CCCC1C(C)C([N+](=O)[O-])=C2N(Cc3ccc(Cl)nc3)CCN2C1O (centres unmarked) [Compound 34]	–	–	95%	90%	–
CCOC1CC([N+](=O)[O-])=C2N(Cc3ccc(Cl)nc3)CCN2C1O (centres unmarked) [Compound 47]	–	–	98%	91%	–
CC1C(O)N2CCN(Cc3ccc(Cl)nc3)C2=C([N+](=O)[O-])C1(C)C (centres unmarked) [Compound 36]	–	–	94%	97%	–
CC1CC(O)N2CCN(Cc3cnc(Cl)s3)C2=C1[N+](=O)[O-] (centres unmarked) [Compound 12, 1-((2-chlorothiazol-5-yl)methyl)-7-methyl-8-nitro-1,2,3,5,6,7-hexahydroimidazo[1,2-a]pyridin-5-ol]	–	–	–	–	mortality at 500 ppm [1]: 100%; mortality at 500 ppm [2]: 100%
CC1(C)CC(O)N2CCN(Cc3ccc(Cl)nc3)C2=C1[N+](=O)[O-] (centres unmarked) [Compound 31]	–	–	96%	100%	–
CCCC1CC(O)N2CCN(Cc3ccc(Cl)nc3)C2=C1[N+](=O)[O-] (centres unmarked) [Compound 24]	–	–	97%	89%	–
CCC1CC(O)N2CCN(Cc3ccc(Cl)nc3)C2=C1[N+](=O)[O-] (centres unmarked) [Compound 22]	–	–	93%	98%	–
CCCOC1C(C)CC([N+](=O)[O-])=C2N(Cc3ccc(Cl)nc3)CCN21 (centres unmarked) [Compound 20]	–	–	86%	98%	–
CCCCC1CC(O)N2CCN(Cc3ccc(Cl)nc3)C2=C1[N+](=O)[O-] (centres unmarked) [Compound 41]	–	–	72%	50%	–
CC(C)OC1CC(C)C([N+](=O)[O-])=C2N(Cc3ccc(Cl)nc3)CCN21 (centres unmarked) [Compound 6]	–	–	100%	100%	–

SMILES	Aphis craccivora LC50 (ppm) [1]	Aphis craccivora Mortality (%) (100 ppm) [1]	Mortality (%) (500 ppm) Aphis craccivora [1]	Mortality (%) (500 ppm) Nilaparvata lugens [2]	also measured
CCCC1CC([N+](=O)[O-])=C2N(Cc3ccc(Cl)nc3)CCN2C1OCC (centres unmarked) [Compound 29]	–	–	100%	97%	–
CCC1CC([N+](=O)[O-])=C2N(Cc3ccc(Cl)nc3)CCN2C1OC (centres unmarked) [Compound 27]	–	–	92%	80%	–
CCOC1CC(O)N2CCN(Cc3ccc(Cl)nc3)C2=C1[N+](=O)[O-] (centres unmarked) [o]	66.4 ppm	82%	–	–	–
CC1C([N+](=O)[O-])=C2N(Cc3ccc(Cl)nc3)CCN2C(O)C1C (centres unmarked) [l]	86.4 ppm	66.7%	–	–	–
COC1CC([N+](=O)[O-])=C2N(Cc3cnc(Cl)s3)CCN2C1O (centres unmarked) [Compound 48]	–	–	85%	90%	–
CCCCOC1CC(C)C([N+](=O)[O-])=C2N(Cc3ccc(Cl)nc3)CCN21 (centres unmarked) [Compound 7, 5-butoxy-1-((6-chloropyridin-3-yl)methyl)-7-methyl-8-nitro-1,2,3,5,6,7-hexahydroimidazo[1,2-a]pyridine]	–	–	–	–	mortality at 500 ppm [1]: 80%; mortality at 500 ppm [2]: 100%
O=[N+]([O-])C1=C2N(Cc3ccc(Cl)nc3)CCN2C(O)CC1c1ccccc1 (centres unmarked) [Compound 38, 1-((6-chloropyridin-3-yl)methyl)-8-nitro-7-phenyl-1,2,3,5,6,7-hexahydroimidazo[1,2-a]pyridin-5-ol]	–	–	–	–	mortality at 500 ppm [1]: 24%; mortality at 500 ppm [2]: 0%
COC1CC(c2ccccc2)C([N+](=O)[O-])=C2N(Cc3ccc(Cl)nc3)CCN21 (centres unmarked) [Compound 39]	–	–	45%	0%	–
CCOC1CC(C)C([N+](=O)[O-])=C2N(Cc3cnc(Cl)s3)CCN21 (centres unmarked) [Compound 13]	–	–	98%	100%	–
CC1C([N+](=O)[O-])=C2N(Cc3ccc(Cl)nc3)CCN2C(O)C1C (centres unmarked) [Compound 30, 1-((6-chloropyridin-3-yl)methyl)-6,7-dimethyl-8-nitro-1,2,3,5,6,7-hexahydroimidazo[1,2-a]pyridin-5-ol]	–	–	–	–	mortality at 500 ppm [1]: 100%; mortality at 500 ppm [2]: 100%
CCCCCOC1CC(C)C([N+](=O)[O-])=C2N(Cc3ccc(Cl)nc3)CCN21 (centres unmarked) [Compound 8]	–	–	67%	80%	–
C#CCOC1CC(C)C([N+](=O)[O-])=C2N(Cc3ccc(Cl)nc3)CCN21 (centres unmarked) [Compound 10]	–	–	43%	67%	–
CCOC1CC(C)C([N+](=O)[O-])=C2N(Cc3ccc(Cl)nc3)CCN21 (centres unmarked) [c]	65.4 ppm	67%	–	–	–
CC1CC(OCC(F)(F)F)N2CCN(Cc3ccc(Cl)nc3)C2=C1[N+](=O)[O-] (centres unmarked) [Compound 4]	–	–	100%	100%	–
CCCC1CC(O)N2CCN(Cc3ccc(Cl)nc3)C2=C1[N+](=O)[O-] (centres unmarked) [i]	75.2 ppm	77%	–	–	–
CC1CC(O)N2CCN(Cc3ccc(Cl)nc3)C2=C1[N+](=O)[O-] (centres unmarked) [a]	31.5 ppm	95.3%	–	–	–
CCCOC1CC(C)C([N+](=O)[O-])=C2N(Cc3ccc(Cl)nc3)CCN21 (centres unmarked) [d]	33.6 ppm	75.4%	–	–	–
CCOC1CC([N+](=O)[O-])=C2N(Cc3ccc(Cl)nc3)CCN2C1O (centres unmarked) [q]	70.9 ppm	85%	–	–	–
CCC1C([N+](=O)[O-])=C2N(Cc3ccc(Cl)nc3)CCN2C(O)C1C (centres unmarked) [m]	75.9 ppm	87%	–	–	–
CC(C)OC1CC(C)C([N+](=O)[O-])=C2N(Cc3ccc(Cl)nc3)CCN21 (centres unmarked) [e]	20.5 ppm	100%	–	–	–
CC1CC(O)N2CCN(Cc3cnc(Cl)s3)C2=C1[N+](=O)[O-] (centres unmarked) [f]	68 ppm	87%	–	–	–
COC1CC(C)C([N+](=O)[O-])=C2N(Cc3ccc(Cl)nc3)CCN21 (centres unmarked) [b]	50.8 ppm	84%	–	–	–
CCC1CC([N+](=O)[O-])=C2N(Cc3ccc(Cl)nc3)CCN2C1O (centres unmarked) [j]	57.3 ppm	93.6%	–	–	–
